Experimental data taken from the supplement of paper PMC11616607.

Key:
Experiment in all cases: drug sensitivity score (DSS) from 5-point dose-response viability curve (DSS (area-under-curve based score)); higher = more sensitive (stronger growth inhibition or killing); extreme values may be limits of the assay
Settings in all cases: exposure time: 72 h; concentration range: 5 concentrations over 10,000-fold range
[1] = test system: CAOV3
Summary of the method: (§1)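 Each cell line and drug received a drug sensitivity score from Breeze software, where higher means more sensitive. Zero stands for no response. Scores came from CellTiter-Glo viability readings of ovarian cancer and normal ovarian cells, 1,500 per well in 384-well plates, after 3 days at 37°C, 5% CO2 with drugs at five concentrations over a 10,000-fold range.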

[2] = test system: HOSE1C
Summary of the method: as §1

[3] = test system: HOSE2C
Summary of the method: as §1

[4] = test system: Ovsaho
Summary of the method: as §1

[5] = test system: OVCAR5
Summary of the method: as §1

[6] = test system: OVCAR8
Summary of the method: as §1

[7] = test system: OV90
Summary of the method: as §1

[8] = test system: OVCAR4
Summary of the method: as §1

[9] = test system: Kuramochi
Summary of the method: as §1

[10] = test system: JHOS2
Summary of the method: as §1

[11] = test system: COV318
Summary of the method: as §1

[12] = test system: COV362
Summary of the method: as §1

Row | SMILES | drug sensitivity score [1] | drug sensitivity score [2] | drug sensitivity score [3] | drug sensitivity score [4] | drug sensitivity score [5] | drug sensitivity score [6] | drug sensitivity score [7] | drug sensitivity score [8] | drug sensitivity score [9] | drug sensitivity score [10] | drug sensitivity score [11] | drug sensitivity score [12]
1 | NC1(c2ccc(-c3nc4ccn5c(=O)[nH]nc5c4cc3-c3ccccc3)cc2)CCC1 [MK-2206] | 1.9 | 2.1 | 2.6 | 2.6 | 2 | 0 | 1.9 | 0.4 | 4.4 | 0 | 1.2 | 0.4
2 | O=C(c1cccc(Cl)c1F)N1CCN(Cc2cccc(Nc3nccs3)n2)CC1 [MK-8745] | 4.9 | 2.1 | 3.5 | 0.2 | 7.8 | 8 | 0.5 | 1.1 | 0.4 | 0 | 0 | 0
3 | Cn1cc(-c2cnn3c(N)c(Br)c([C@@H]4CCCNC4)nc23)cn1 [MK-8776] | 1.3 | 5.1 | 5.1 | 0 | 0.4 | 1 | 1.1 | 0 | 0 | 0 | 0 | 0
4 | Cc1cnc(-c2ccccc2C(C)C)nc1NCc1ccc(-n2ccnn2)cc1 [ML323] | 0.3 | 0 | 0 | 0 | 0 | 0 | 0.1 | 1.5 | 0 | 0 | 0.1 | 0
5 | O=C(CCNC(=O)c1ccc(OC(F)(F)F)cc1)N[C@@H]1CCCc2ccccc21 [ML390] | 0.6 | 19.8 | 13.4 | 4.1 | 2 | 4.9 | 5.6 | 0 | 5.3 | 3.4 | 4.1 | 0
6 | O=C(Nc1cccc(NC(=O)c2cccc(O)c2O)c1)c1cccc(O)c1O [MST-312] | 6.7 | 11.9 | 10.5 | 9.7 | 5 | 13.9 | 7.6 | 7.2 | 5.5 | 9.4 | 5.4 | 5.1
7 | CNC(=O)[C@@H](NC(=O)[C@H](CC(C)C)[C@H](O)C(=O)NO)C(C)(C)C [Marimastat] | 1.3 | 0 | 0 | 0 | 1.6 | 0.1 | 0.1 | 0.1 | 0 | 0 | 0 | 0
8 | Cc1ccc(NC(=O)c2ccc(CN3CCN(C)CC3)cc2)cc1Nc1nc(-c2cccnc2)cs1 [Masitinib] | 0.2 | 1.8 | 1.3 | 0.8 | 4.4 | 4.1 | 5.2 | 2.1 | 3.4 | 1.7 | 1.7 | 1.4
9 | CC(=O)O[C@]1(C(C)=O)CC[C@H]2[C@@H]3C=C(C)C4=CC(=O)CC[C@]4(C)[C@H]3CC[C@@]21C [Megestrol acetate] | 0 | 0 | 0 | 0 | 0 | 0.4 | 0 | 0 | 0 | 0 | 0 | 0
10 | CCN(CC)CCCC(C)Nc1c2ccc(Cl)cc2nc2ccc(OC)cc12 (configuration not stated) [Mepacrine] | 9.4 | 9.7 | 8.2 | 13.1 | 13.1 | 12.1 | 16 | 15.2 | 13.2 | 10.5 | 10.3 | 10.3
11 | S=c1[nH]cnc2nc[nH]c12 [Mercaptopurine] | 12.4 | 0 | 0 | 5.5 | 7.3 | 8.6 | 4.4 | 12.3 | 7.7 | 4.1 | 0.1 | 6.4
12 | Cc1ccc(C(=O)Nc2ccc(Oc3cc4cnn(C)c4cc3-c3cn[nH]c3)c(F)c2)c(=O)n1-c1ccc(F)cc1 [Merestinib] | 0 | 0 | 0 | 0 | 0.9 | 0.1 | 0.6 | 0.4 | 1.1 | 2.4 | 0 | 0
13 | CN(C)C(=N)NC(=N)N [Metformin] | 0 | 0 | 0 | 0 | 0 | 0 | 0 | 0 | 0 | 0 | 0 | 0
14 | CN(Cc1cnc2nc(N)nc(N)c2n1)c1ccc(C(=O)N[C@@H](CCC(=O)O)C(=O)O)cc1 [Methotrexate] | 16.7 | 13.7 | 13.2 | 2.9 | 13.8 | 12.3 | 10.6 | 14.8 | 13 | 6.5 | 0 | 14.5
15 | C[C@H]1C[C@@H]2[C@H]([C@@H](O)C[C@@]3(C)[C@H]2CC[C@]3(O)C(=O)CO)[C@@]2(C)C=CC(=O)C=C12 [Methylprednisolone] | 0 | 0 | 0 | 1 | 0 | 0.2 | 0 | 0 | 0 | 0.7 | 1.3 | 1.2
16 | CO[C@@H]1[C@H](N(C)C(=O)c2ccccc2)C[C@H]2O[C@]1(C)n1c3ccccc3c3c4c(c5c6ccccc6n2c5c31)C(=O)NC4 [Midostaurin] | 17.7 | 11.7 | 15.1 | 14.1 | 5.3 | 7 | 12.7 | 8.5 | 7.2 | 9.7 | 8.1 | 5
